# Laboratory results as given in paper PMC11904993, “Humanized Candida and NanoBiT Assays Expedite Discovery of Bdf1 Bromodomain Inhibitors With Antifungal Potential” (Advanced Science, 2025).
# Where “and” joins values, the source holds several entries; their conditions need not be identical. Equal values may be shown once. Read-outs that look alike come from different tables or passages of the source.
# How the values were obtained:
# [1] = target: CgBdf1 BD2 (Candida glabrata, UniProt Q6FWV7); experiment: biochemical; type: binding, C. glabrata; details: for IC50: read-out: pIC50 CgBD2 (converted)
# [2] = target: CgBdf1 BD1 (Candida glabrata, UniProt Q6FWV7); experiment: HTRF assay, inhibition of H4ac4 peptide binding; parameters: species or system C. glabrata; details: for pIC50 CgBD1 / IC50: single experiments Exp1-3; for IC50: read-out: pIC50 CgBD1 (converted)
# [3] = system: C. glabrata strains expressing WT and mutant Bdf1; experiment: Growth inhibition in liquid media, C. glabrata lab strains; details: for EC50: Nakaseomyces glabratus; for OD at 600 nm: Figure S4B, Exp 1-3
# Procedure: Growth on Liquid Media with C. glabrata Lab Strains: Cells were grown at 30 °C in SC+M+C‐U medium (SC medium with 5 mM methionine, 0.25 mM cysteine, without uracil) to an OD600 of 0.5–0.8. […] Plates were incubated at 30 °C and OD600 was measured using a Multiskan FC Microplate Photometer (Thermo Fisher).
# [4] = system: CgBdf1 BD1; experiment: Histone peptide array assay; details: peptide array signal; for Raw data, WT / Normalized (0 to 100%), WT: CgBdf1 BD1 WT; for Normalized (0 to 100%), WT / Normalized (0 to 100%), YF mutant: mean of the two raw values; for Raw data, YF mutant / Normalized (0 to 100%), YF mutant: CgBdf1 BD1 YF mutant
# Procedure: (§1) The array was prepared as described in the manufacturer's instructions. […] The array was then washed three times with binding buffer. Anti‐GST antibody (GE Healthcare) was used for the detection of GST‐tagged bromodomains.
# [5] = system: CgBdf1 BD2; experiment: Histone peptide array assay; details: peptide array signal; for Raw data, WT / Normalized (0 to 100%), WT: CgBdf1 BD2 WT; for Normalized (0 to 100%), WT / Normalized (0 to 100%), YF mutant: mean of the two raw values; for Raw data, YF mutant / Normalized (0 to 100%), YF mutant: CgBdf1 BD2 YF mutant
# Procedure: as §1
# [6] = read-out: pEC50 (WT BDF1), Fig 2D (converted), WT C. glabrata, single experiments Exp1-3
# [7] = read-out: pEC50 growth inhibition, Fig 2C (converted), strain BD1 Y-F, single experiments Exp1-3
# [8] = read-out: pEC50 growth inhibition, Fig 2C (converted), strain BD2 Y-F, single experiments Exp1-3
# [9] = Fig 2C original data, analogs of 24, single experiments Exp1-3
# [10] = Fig 2C original data, analogs of 24
# Sequence of CgBdf1 BD2 (Candida glabrata, UniProt Q6FWV7) (Q6FWV7 entry or part of it): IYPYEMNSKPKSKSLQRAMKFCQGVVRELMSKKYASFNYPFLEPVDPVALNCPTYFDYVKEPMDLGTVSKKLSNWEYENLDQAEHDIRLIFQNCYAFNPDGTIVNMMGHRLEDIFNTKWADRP
# Sequence of CgBdf1 BD1 (Candida glabrata, UniProt Q6FWV7) (Q6FWV7 entry or part of it): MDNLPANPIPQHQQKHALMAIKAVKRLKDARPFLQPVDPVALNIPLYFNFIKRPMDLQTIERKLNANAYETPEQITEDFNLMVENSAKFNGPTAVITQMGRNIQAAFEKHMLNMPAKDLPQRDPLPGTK
molecule,measurement,setting,value
"COc1ccccc1S(=O)(=O)Nc1ccc2c(c1)CN(C)C(=O)N2 [PFI-1, reference compound]",pIC50 CgBD2,[1],* 4
same,pIC50 CgBD1,[2]; Fig 1D/2A original data,4.63 and 4.61
"COC(=O)c1ccc(CNc2nc(-c3ccc(C)cc3)nnc2C)cc1 [Compound 24k, Methyl 4‐(((6‐methyl‐3‐(p‐tolyl)‐1,2,4‐triazin‐5‐yl)amino)methyl)benzoate]",EC50,[3]; [6],> 251 µM
same,EC50,[3]; [7],> 251 µM
same,EC50,[3]; [8],> 251 µM
same,IC50,[1]; [9],> 100 µM
same,IC50,[2]; [10],> 100 µM
COc1ccccc1S(=O)(=O)Nc1ccc2c(c1)CN(C)C(=O)N2 [PFI],OD at 600 nm,[3]; WT BDF1 strain,0.381 and 0.415 and 0.390
same,OD at 600 nm,[3]; bdf1-bd1Δ strain,0.323 and 0.367 and 0.349
same,OD at 600 nm,[3]; bdf1-bd2Δ strain,0.181 and 0.163 and 0.165
Cc1ccc(-c2nc(=O)c(C)n[nH]2)cc1 [Compound 67],"Raw data, WT",[4]; first replicate column,0.09956
same,"Normalized (0 to 100%), WT",[4],16%
same,"Raw data, WT",[4]; second replicate column,0.2253
same,"Raw data, YF mutant",[4]; first replicate column,0.002159
same,"Normalized (0 to 100%), YF mutant",[4],0.308%
same,"Raw data, YF mutant",[4]; second replicate column,0.00401
same,"Raw data, WT",[5]; first replicate column,0.06082
same,"Normalized (0 to 100%), WT",[5],11%
same,"Raw data, WT",[5]; second replicate column,0.1541
same,"Raw data, YF mutant",[5]; first replicate column,0.007975
same,"Normalized (0 to 100%), YF mutant",[5],0.613%
same,"Raw data, YF mutant",[5]; second replicate column,0.004294
I-BET151 [reference compound],pIC50 CgBD2,"[1]; Fig 1D/2A original data, single experiments Exp1-3, listed as IBET-151",6.30 and 6.21 and 6.31
same,pIC50 CgBD2,"[1]; Fig 1D/2A original data, single experiments Exp1-3, listed as i-BET151",6.297 and 6.205
same,pIC50 CgBD1,"[2]; Fig 1D/2A original data, listed as IBET-151",5.54 and 5.64 and 5.77
same,pIC50 CgBD1,"[2]; Fig 1D/2A original data, listed as i-BET151",5.772 and 5.641
"Cc1ccc(-c2nnc(C)c(NCc3ccccc3)n2)cc1 [Compound 24m, N‐benzyl‐6‐methyl‐3‐(p‐tolyl)‐1,2,4‐triazin‐5‐amine]",EC50,[3]; [6],> 251 µM
same,EC50,[3]; [7],> 251 µM
same,EC50,[3]; [8],> 251 µM
same,IC50,[1]; [9],> 20 µM
same,IC50,[2]; [10],> 20 µM
CCOC(=N)c1ccc(C)cc1 [Compound 65],"Raw data, WT",[4]; first replicate column,0.0009452
same,"Normalized (0 to 100%), WT",[4],1.47%
same,"Raw data, WT",[4]; second replicate column,0.02836
same,"Raw data, YF mutant",[4]; first replicate column,0.001851
same,"Normalized (0 to 100%), YF mutant",[4],0.247%
same,"Raw data, YF mutant",[4]; second replicate column,0.003085
same,"Raw data, WT",[5]; first replicate column,0.004991
same,"Normalized (0 to 100%), WT",[5],0.421%
same,"Raw data, WT",[5]; second replicate column,0.003431
same,"Raw data, YF mutant",[5]; first replicate column,0.007362
same,"Normalized (0 to 100%), YF mutant",[5],0.383%
same,"Raw data, YF mutant",[5]; second replicate column,0.0003067
"COC(=O)c1cccc(CNc2nc(-c3ccc(C)cc3)nnc2C)c1 [Compound 24l, Methyl 3‐(((6‐methyl‐3‐(p‐tolyl)‐1,2,4‐triazin‐5‐yl)amino)methyl)benzoate]",EC50,[3]; [6],> 251 µM
same,EC50,[3]; [7],> 251 µM
same,EC50,[3]; [8],> 251 µM
same,IC50,[1]; [9],> 100 µM
same,IC50,[2]; [10],79.4 µM and 39.6 µM and 89.9 µM
"CCOC(=O)Nc1cc(-c2ccc(C)c(NS(C)(=O)=O)c2)nn2c(C)nnc12 [Bromosporine, reference compound]",OD at 600 nm,[3]; WT BDF1 strain,0.446 and 0.443 and 0.490
same,OD at 600 nm,[3]; bdf1-bd1Δ strain,0.422 and 0.447 and 0.470
same,OD at 600 nm,[3]; bdf1-bd2Δ strain,0.242 and 0.229 and 0.260
same,remaining activity at 0.07813 µM,"[1]; 24 h, CgBD2, Conc 78.13 nM, replicate experiments, read-out: HTRF signal relative to no-compound control (Figure S4A raw data)",106%
same,remaining activity at 0.15625 µM,"[1]; 24 h, CgBD2, Conc 156.25 nM, replicate experiments, read-out: HTRF signal relative to no-compound control (Figure S4A raw data)",113%
same,remaining activity at […],"[1]; 24 h, CgBD2, Conc 2500 nM, replicate experiments, read-out: HTRF signal relative to no-compound control (Figure S4A raw data)",79.8%
same,remaining activity at 5 µM,"[1]; 24 h, CgBD2, Conc 5000 nM, replicate experiments, read-out: HTRF signal relative to no-compound control (Figure S4A raw data)",60.1%
same,remaining activity at 10 µM,"[1]; 24 h, CgBD2, Conc 10000 nM, replicate experiments, read-out: HTRF signal relative to no-compound control (Figure S4A raw data)",30.8%
same,remaining activity at 20 µM,"[1]; 24 h, CgBD2, Conc 20000 nM, replicate experiments, read-out: HTRF signal relative to no-compound control (Figure S4A raw data)",23.4%
same,IC50,"[1]; Fig 1D/2A original data, single experiments Exp1-3",4.9 µM and 4.17 µM
same,remaining activity at 0.07813 µM,"[2]; 4 h, CgBD1, Conc 78.13 nM, replicate experiments, read-out: HTRF signal relative to no-compound control (Figure S4A raw data)",98%
same,remaining activity at 0.3125 µM,"[2]; 4 h, CgBD1, Conc 312.5 nM, replicate experiments, read-out: HTRF signal relative to no-compound control (Figure S4A raw data)",97.9%
same,remaining activity at […],"[2]; 4 h, CgBD1, Conc 2500 nM, replicate experiments, read-out: HTRF signal relative to no-compound control (Figure S4A raw data)",94.3%
same,remaining activity at 5 µM,"[2]; 4 h, CgBD1, Conc 5000 nM, replicate experiments, read-out: HTRF signal relative to no-compound control (Figure S4A raw data)",80.9%
same,remaining activity at 10 µM,"[2]; 4 h, CgBD1, Conc 10000 nM, replicate experiments, read-out: HTRF signal relative to no-compound control (Figure S4A raw data)",75.9%
same,remaining activity at 20 µM,"[2]; 4 h, CgBD1, Conc 20000 nM, replicate experiments, read-out: HTRF signal relative to no-compound control (Figure S4A raw data)",49.4%
same,IC50,[2]; Fig 1D/2A original data,23.4 µM and 12.3 µM and 20 µM
Cc1cccc(-c2nnc(C)c(NCc3ccco3)n2)c1 [Compound 24b],pEC50 growth inhibition,"[3]; Fig 2C, strain BD2 Y-F, single experiments Exp1-3",3.930 and 3.985
same,EC50,[3]; [6],> 251 µM
same,EC50,[3]; [7],> 251 µM
same,EC50,[3]; [8],74.8 µM
same,IC50,[1]; [9],29.5 µM and 74.6 µM and > 100 µM
same,IC50,[2]; [10],12.6 µM and 14.6 µM and 22.2 µM
